Test [1] concerns H274Y virus. The test is classed as cell-based. The settings on record: read-out: IC50 against influenza virus replication (plaque formation), H274Y.
In test [2] the test system is NAI drug-resistant mutant stain H274Y-PR8 virus. Set-up: species or system BALB/c mice. The settings on record: mouse, in vivo.
The subject of test [3] is H274Y mutant influenza virus. The settings on record: background statement; cited from earlier work.

“And” between values parts separate entries of the source, which are not always exact repeats. Equal values may be shown once. “Also recorded” adds a separate entry of the source.

We go through three molecules from patent publication US20190167593A1, “C[…] PHARMACEUTICALLY ACCEPTABLE SALT THEREOF, AND APPLICATION OF SAME” (priority 2016, published 2019).

As usually defined, the IC50 is the midpoint of a concentration-inhibition curve.

For `CCOC(=O)C1=C[C@@H](OC(CC)CC)[C@H](NC(C)=O)[C@@H](N)C1.O=P(O)(O)O` [Oseltamivir phosphate, ethyl (3R, 4R, 5S)-4-acetamido-5-amino-3-(1-ethylpropoxy)-1-cyclohexene-1-carboxylate phosphate], in test [1], the IC50 came out at 15000 nM. In test [2], the disease symptoms entry was “obvious disease symptoms” and the mortality rate stood at 40%. Also, the “decrease of activity due to the resistance caused by the mutation of H274Y” value in test [3] is given as “more than 300 times”.

Turning to Peramivir, the IC50 in test [1] is 643 nM. For the same molecule, in test [2], the body weight entry is on record as “significant weight decline”, the body weight decrease result is listed as “about 6%”, the disease symptoms entry was “mild disease symptoms; also recorded: obvious disease symbols” and the mortality rate amounted to 60%.

As to `CCCCS(=O)(=O)N[C@@H]1CCCN([C@@H]2C=C(C(=O)O)C[C@H](NC(=N)N)[C@H]2NC(C)=O)C1` [(3R,4R,5S)-4-acetamido-5-guanidino-3-((3R)-3-n-butylsulfonamidopiperidin)-1-cyclohexene-1-carboxylic acid], the IC50 in test [1] was 130 nM and 131 nM. Besides, in test [2], the body weight result is listed as “basically the same as that of the uninfected control mice; also recorded: decreased significantly”, the disease symptoms entry is “no symptoms of any diseases” and the mortality rate was found to be 20%.
